# Source: paper PMC9501232, “Novel 4-Azapregnene Derivatives as Potential Anticancer Agents: Synthesis, Antiproliferative Activity and Molecular Docking Studies” (Molecules, 2022)
# Experiments:
# [1] = system: PC-3 cells; assay: MTT cell proliferation assay, PC-3; assay type: cell-based, human
# Procedure: Cell lines, namely LNCaP, PC-3, T47-D and NHDF were obtained from American Type Culture Collection (ATCC; Manassas, VA, USA) and cultured in 75 cm^2 culture flasks at 37 °C in a humidified air incubator with 5% CO2. LNCaP, PC-3 and T47-D cells, which were used in passages 20th to 27th, 25th to 29th and 10th to 15th, respectively, were cultured in RPMI 1640 medium (Sigma-Aldrich, Inc., St. Louis, MO, USA) with 10% fetal bovine serum (FBS; Sigma-Aldrich, Inc. St. Louis, MO, USA) and 1% of the antibiotic mixture of 10,000 IU/mL penicillin G and […] of streptomycin (Sp, Sigma-Aldrich, Inc. St. Louis, MO, USA). Finally, NHDF cells (Normal Human Dermal Fibroblasts) were cultured in RPMI 1640 medium supplemented with 10% FBS, 2 mM L-glutamine, 10 mM HEPES, 1 mM sodium pyruvate and 1% of an antibiotic/antimycotic mixture (10,000 U/mL penicillin G, 100 mg/mL streptomycin and 25 µg/mL amphotericin B) (Ab; Sigma-Aldrich, Inc. St. Louis, MO, USA), and these cells were used in passages 10 to 12. For all cell types, the medium was renewed every 2–3 days until cells reach nearly the confluence state. Then, they were detached gently by trypsinization (trypsin-EDTA solution: 0.125 g/L of trypsin and 0.02 g/L of EDTA).
# All the stock solutions were prepared by dissolving compounds in dimethyl sulfoxide (DMSO; Sigma-Aldrich, Inc., St. Louis, MO, USA) at 10 mM and stored at 4 °C. From these solutions, the several diluted compounds solutions in different concentrations were freshly prepared in a complete culture medium before each experiment.
# As previously referred, cells were trypsinized after reaching a near confluence state and counted by the trypan blue exclusion assay in a Neubauer chamber. Then, 100 µL of cell suspension/well with an initial density of 2 × 10^4 cells/mL were seeded in 96-well culture plates (Nunc, Apogent, Denmark) and left to adhere for 48 h. After cells adherence, the medium was replaced by the distinct solutions of the compounds in the study (30 µM for preliminary studies and 0.01, 0.1, 1, 10, 50 and 100 µM for concentration–response studies) in the appropriate medium for approximately 72 h. 5-FU and finasteride were used as positive controls and untreated cells were used as the negative control. Each experiment was performed in quadruplicate and independently performed at least two times. The in vitro antiproliferative effects were evaluated by the MTT assay (Sigma-Aldrich, Inc. St. Louis, USA). After the incubation period, the medium was removed and 100 µL of phosphate buffer saline (NaCl 137 mM, KCl 2.7 mM, Na2HPO4 10 mM and KH2PO4 1.8 mM in deionized water and pH adjusted to 7.4) were used to wash the cells. Then, 100 µL of the MTT solution (5 mg/mL) was prepared in the appropriate serum-free medium and was added to each well, followed by incubation for 4 h at 37 °C. Hereafter, the MTT containing medium was removed and the formazan crystals were dissolved in DMSO. Then the absorbance was measured at 570 nm using a microplate spectrophotometer BIO-RAD xMarkTM. Cell viability values were expressed as percentages relative to the absorbance determined in the cells used as negative controls.
# The data are expressed as a mean ± standard deviation (SD) and differences between groups were considered statistically significant when p < 0.05. The IC50 values were determined through sigmoidal fitting analysis with variable slope and considering a 95% confidence level. All data shown are representative of at least two independent experiments.
# [2] = system: T47-D cells; assay: Fluorescence microscopy, PI/Hoechst 3342 staining; assay type: cell-based, human; conditions: 20 µM, 24, 48 and 72 h, vs negative and positive controls
# Procedure: To access the effects of the compound 3g in T47-D cells, fluorescence microscopy assays with Hoechst 3342 and PI staining were performed. T47-D cells were seeded at 2 × 10^4 cells/mL in a 24-well culture plate containing circular coverslips of 10 mm diameter, in a complete culture medium. After 48 h, cells were incubated during 24, 48 and 72 h, with 5-FU at 20 µM, as the positive control, steroid 3g at 20 µM, and untreated cells were used as a negative control. Then, cells were incubated with 20 µL/per well of a solution of PI in PBS at 1 mg/mL for 25 min at 37 °C. The medium was removed, and the cells were fixed with formalin 4% for 15 min at room temperature. Cells were washed three times with PBS and then they were incubated with 30 µL/per coverslip of Hoechst 33,342 (1:500) for 10 min. After incubation, cells were washed three times with PBS. Coverslips were mounted on a drop of permanent mounting medium (Dako) on a microscope slide and visualized in a Zeiss Axio Imager A1 microscope with the 40 × objective. The PI/Hoechst 3342 ratio was calculated by dividing PI-positive cells by Hoechst 3342-positive cells and, then the values were normalized.
smiles,measurement,setting,value
"C[C@]12CC[C@H]3[C@@H](CC=C4NC(=O)CC[C@@]43C)[C@@H]1CC[C@@H]2C(=O)/C=C/c1cccnc1 [Compound 3g, 21E-[(Pyridin-3-yl)methylidene]-4-azapregn-5-ene-3,20-dione]",IC50,"[1]; Homo sapiens, PC-3, 72 h, MTT",3.64 µM
same,"MTT screening, cell proliferation","[1]; PC-3, 30 µM, 72 h, average ± SD",0.1 ± 0.1 percentage of negative control
same,Ratio of PI/Hoechst 3342 staining,[2],higher ratio of PI/Hoechst 3342 staining
